# Measured values: patent US20090137577A1, “HETEROCYCLIC COMPOUNDS” (Pfizer Inc., priority 2007, published 2009)
# Molecular target: T1, mGluR2 receptor (metabotropic glutamate receptor 2) (Homo sapiens, UniProt Q14416)
# T1 construct: expressed in transfected cells
# Test: mGluR2 potentiator screen (FLIPR, EC10-EC20 glutamate challenge);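 further: HEK cells stably expressing human mGluR2 with GL15 G protein, Fluo-4 calcium fluorescence read on FLIPR, compounds added before an EC10-EC20 glutamate challenge to detect potentiation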
# Format: cell-based
# Conditions: geometric mean; read-out: mGluR 2 EC50 (geometric mean)
# T1 sequence (Q14416 19-872, species assumed): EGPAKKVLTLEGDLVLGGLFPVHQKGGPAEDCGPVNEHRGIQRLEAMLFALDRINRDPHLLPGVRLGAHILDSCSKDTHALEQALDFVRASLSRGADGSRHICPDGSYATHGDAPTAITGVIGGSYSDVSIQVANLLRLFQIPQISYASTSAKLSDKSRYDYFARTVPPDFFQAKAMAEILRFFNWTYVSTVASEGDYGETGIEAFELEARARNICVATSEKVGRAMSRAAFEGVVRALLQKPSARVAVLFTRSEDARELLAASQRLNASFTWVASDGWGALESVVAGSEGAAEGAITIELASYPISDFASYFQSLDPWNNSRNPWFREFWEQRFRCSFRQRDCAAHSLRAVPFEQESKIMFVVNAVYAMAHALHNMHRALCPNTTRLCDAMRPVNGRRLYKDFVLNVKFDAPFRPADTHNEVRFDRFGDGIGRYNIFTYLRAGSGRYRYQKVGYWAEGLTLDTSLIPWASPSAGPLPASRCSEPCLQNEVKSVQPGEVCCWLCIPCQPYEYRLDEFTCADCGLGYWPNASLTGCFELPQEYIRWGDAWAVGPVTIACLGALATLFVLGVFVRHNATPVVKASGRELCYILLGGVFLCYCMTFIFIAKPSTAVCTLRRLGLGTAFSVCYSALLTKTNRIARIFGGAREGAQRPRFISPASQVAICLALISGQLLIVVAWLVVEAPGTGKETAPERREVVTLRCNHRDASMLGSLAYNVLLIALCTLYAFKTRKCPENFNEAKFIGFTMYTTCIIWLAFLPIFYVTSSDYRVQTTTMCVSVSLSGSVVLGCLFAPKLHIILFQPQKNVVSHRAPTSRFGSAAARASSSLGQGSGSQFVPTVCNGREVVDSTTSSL
row,EC50,SMILES
1,827 nM,CC1CN(Cc2ccc(OCc3ccc(C#N)cc3)cc2)C(=O)O1 (centres unmarked) [Example 124]
2,24.1 nM,Cc1ccc(C(C)Oc2ccc(CN3CC(C)OC3=O)cc2)cc1 (centres unmarked) [Example 125]
3,83.1 nM,CC1CN(Cc2ccc(OC3Cc4ccccc4C3)cc2)C(=O)O1 (centres unmarked) [Example 126]
4,1680 nM,COc1cc(COc2ccc(CN3CC(C)OC3=O)cc2)ccc1F (centres unmarked) [Example 127]
5,595 nM,Cc1c(COc2ccc(CN3CC(C)OC3=O)cc2)cnn1-c1ccccc1 (centres unmarked) [Example 128]
6,155 nM,CC1CN(Cc2ccc(OCc3cccc(C#N)c3)cc2)C(=O)O1 (centres unmarked) [Example 129]
7,125 nM,CC1CN(Cc2ccc(OCc3ccc(-n4cccn4)cc3)cc2)C(=O)O1 (centres unmarked) [Example 131]
8,1670 nM,Cc1onc(-c2ccccc2)c1COc1ccc(CN2CC(C)OC2=O)cc1 (centres unmarked) [Example 132]
9,120 nM,Cc1nc(-c2ccccc2)ncc1COc1ccc(CN2CC(C)OC2=O)cc1 (centres unmarked) [Example 133]
10,214 nM,CCC[C@H](C)Oc1ccc(CN2CC(C)OC2=O)cc1 (some centres unmarked) [Example 134]
11,1890 nM,CC1CN(Cc2ccc(OC(C)C3CC3)cc2)C(=O)O1 (centres unmarked) [Example 135]
12,774 nM,CCC(CC)Oc1ccc(CN2CC(C)OC2=O)cc1 (centres unmarked) [Example 136]
13,310 nM,CC1CN(Cc2ccc(OCc3ccc(F)c(F)c3)cc2)C(=O)O1 (centres unmarked) [Example 137]
14,87.3 nM,CCOc1cccc(COc2ccc(CN3CC(C)OC3=O)cc2)c1 (centres unmarked) [Example 138]
15,79.7 nM,CC1CN(Cc2ccc(O[C@H](C)c3ccccc3)cc2)C(=O)O1 (some centres unmarked) [Example 139]
16,85.8 nM,CC1CN(Cc2ccc(OC3CCc4ccccc43)cc2)C(=O)O1 (centres unmarked) [Example 140]
17,995 nM,CCC(COc1ccc(CN2CC(C)OC2=O)cc1)(c1ccccc1)N(C)C (centres unmarked) [Example 141]
18,43.5 nM,Cc1ccc(F)cc1COc1ccc(CN2CC(C)OC2=O)cc1 (centres unmarked) [Example 142]
19,75.5 nM,CC(C)CCOc1ccc(CN2CC(C)OC2=O)cc1 (centres unmarked) [Example 143]
20,84.8 nM,CC1CN(Cc2ccc(O[C@@H](C)c3ccccc3)cc2)C(=O)O1 (some centres unmarked) [Example 144]
21,1340 nM,CC[C@](COc1ccc(CN2CC(C)OC2=O)cc1)(c1ccccc1)N(C)C (some centres unmarked) [Example 145]
22,1110 nM,COc1cc(COc2ccc(CN3CC(C)OC3=O)cc2)ccc1C (centres unmarked) [Example 146]

row,EC50,SMILES
1,118 nM,COc1cc(F)ccc1COc1ccc(CN2CC(C)OC2=O)cc1 (centres unmarked) [Example 147]
2,< 13.4 nM,CC[C@H](Oc1ccc(CN2CC(C)OC2=O)cc1)c1ccccc1 (some centres unmarked) [Example 148]
3,35.8 nM,CC1CN(Cc2ccc(OCCCn3ccc4ccccc43)cc2)C(=O)O1 (centres unmarked) [Example 149]
4,101 nM,Cc1ccc(F)c(COc2ccc(CN3CC(C)OC3=O)cc2)c1 (centres unmarked) [Example 150]
5,92.1 nM,COc1ccc(F)c(COc2ccc(CN3CC(C)OC3=O)cc2)c1 (centres unmarked) [Example 151]
6,46 nM,CC1CN(Cc2ccc(OCCCOc3ccc(F)cc3)cc2)C(=O)O1 (centres unmarked) [Example 152]
7,1240 nM,C[C@@H]1CN(Cc2ccc(-c3ccc(N4CCOCC4)nc3)cc2)C(=O)O1 [Example 154]
8,489 nM,C[C@@H]1CN(Cc2ccc(-c3ccc(N(C)C)nc3)cc2)C(=O)O1 [Example 155]
9,< 16.2 nM,COc1ccc(C(C)C)cc1-c1ccc(CN2C[C@@H](C)OC2=O)cc1 [Example 156]
10,< 32.5 nM,C[C@@H]1CN(Cc2ccc(-c3cc4ccccc4o3)cc2)C(=O)O1 [Example 157]
11,151 nM,C[C@@H]1CN(Cc2ccc(-c3ccc(N4CCCC4)nc3)cc2)C(=O)O1 [Example 158]
12,13.9 nM,Cc1cc(F)ccc1-c1ccc(CN2C[C@@H](C)OC2=O)cc1 [Example 159]
13,10.6 nM,Cc1cc(-c2ccc(CN3C[C@@H](C)OC3=O)cc2)ccc1F [Example 160]
14,227 nM,COc1cccc(OC)c1-c1ccc(CN2C[C@@H](C)OC2=O)cc1 [Example 161]
15,42 nM,C[C@@H]1CN(Cc2ccc(-c3cccc4cnccc34)cc2)C(=O)O1 [Example 162]
16,< 7.32 nM,C[C@@H]1CN(Cc2ccc(-c3ccccc3OC(F)(F)F)cc2)C(=O)O1 [Example 164]
17,24.6 nM,COc1ccc(F)cc1-c1ccc(CN2C[C@@H](C)OC2=O)cc1 [Example 166]
18,< 13.4 nM,CCc1ccccc1-c1ccc(CN2C[C@@H](C)OC2=O)cc1 [Example 167]
19,49 nM,CCOC(=O)c1cccc(-c2ccc(CN3C[C@@H](C)OC3=O)cc2)c1 [Example 169]
20,34.2 nM,COc1ccc(-c2ccc(CN3C[C@@H](C)OC3=O)cc2)cc1F [Example 170]
21,60.2 nM,CC(=O)c1ccc(-c2ccc(CN3C[C@@H](C)OC3=O)cc2)cc1 [Example 171]
22,31.4 nM,COc1cccc(F)c1-c1ccc(CN2C[C@@H](C)OC2=O)cc1 [Example 172]

row,EC50,SMILES
1,930 nM,C[C@@H]1CN(Cc2ccc(-c3cccc4cccnc34)cc2)C(=O)O1 [Example 173]
2,1620 nM,CC(C)N1Cc2ccc(-c3ccc(CN4C[C@@H](C)OC4=O)cc3)cc2C1 [Example 174]
3,805 nM,CC(=O)c1ccccc1-c1ccc(CN2C[C@@H](C)OC2=O)cc1 [Example 175]
4,523 nM,"Cc1ccc(C)n1-c1ccc(CN2C[C@@H](C)OC2=O)cc1 [Example 178, (5R)-3-[4-(2,5-dimethyl-1H-pyrrol-1-yl)benzyl]-5-methyl-1,3-oxazolidin-2-one]"
5,137 nM,C[C@@H]1CN(Cc2ccc(Oc3ccc(F)cc3)cc2)C(=O)O1 [Example 179]
6,52 nM,Cc1ccccc1-c1ccc(CN2C[C@@H](C)OC2=O)cc1 [Example 180]
7,286 nM,C[C@@H]1CN(Cc2ccc(-c3cnc4ccccc4c3)cc2)C(=O)O1 [Example 181]
8,74.6 nM,C[C@@H]1CN(Cc2ccc(-c3ccc(Cl)c(Cl)c3)cc2)C(=O)O1 [Example 182]
9,150 nM,C[C@@H]1CN(Cc2ccc(-c3nc(C(C)(C)C)cs3)cc2)C(=O)O1 [Example 183]
10,964 nM,Cc1cc(CN2C[C@@H](C)OC2=O)cc(C)c1OCc1ccccc1 [Example 184]
11,625 nM,C[C@@H]1CN(Cc2ccc3c(c2)Cc2ccccc2-3)C(=O)O1 [Example 185]
12,89 nM,Cc1ccccc1COc1ccc(CN2C[C@@H](C)OC2=O)cc1 [Example 186]
13,113 nM,"C[C@@H]1CN(Cc2ccc(-c3cc(Cl)cc(Cl)c3)cc2)C(=O)O1 [Example 187, (5R)-3-[(3′,5′-dichlorobiphenyl-4-yl)methyl]-5-methyl-1,3-oxazolidin-2-one]"
14,725 nM,"CCN1CCN(Cc2ccc(OC(C)C3CCCCC3)cc2)C(=O)C1 (centres unmarked) [Example 188, 1-[4-(1-cyclohexylethoxy)benzyl]-4-ethylpiperazin-2-one]"
15,83.7 nM,C[C@@H]1CN(Cc2ccc(-c3ccc4c(c3)OCCCO4)cc2)C(=O)O1 [Example 189]
16,676 nM,COc1ccc(-c2ccc(CN3C[C@@H](C)OC3=O)cc2)cc1OC [Example 190]
17,166 nM,C[C@@H]1CN(Cc2ccc(-c3ccc(C#N)cc3)cc2)C(=O)O1 [Example 191]
18,514 nM,CC(=O)c1cccc(-c2ccc(CN3C[C@@H](C)OC3=O)cc2)c1 [Example 193]
19,48.9 nM,COc1ccc(Cl)cc1-c1ccc(CN2C[C@@H](C)OC2=O)cc1 [Example 196]
20,1830 nM,CCOC(=O)c1ccccc1-c1ccc(CN2C[C@@H](C)OC2=O)cc1 [Example 197]
21,42.2 nM,C[C@@H]1CN(Cc2ccc(-c3ccc4c(c3)OCCO4)cc2)C(=O)O1 [Example 198]
